Reference: patent US20120309676A1, “Lantibiotic Salts” (priority 2010, published 2012)
Where a name gives a salt, the structure may show the parent alone. Read-outs that look alike come from different tables or passages of the source.

Tests used:
MRSA = test: MIC susceptibility testing, MRSA; assay type: cell-based, Staphylococcus aureus
Method: (§1) Susceptibility testing with the exception of Streptococcus pneumoniae was performed by two-fold serial dilutions in Mueller Hinton Broth supplemented with 50 μg/mL Ca^2+. Susceptibility testing of S. pneumoniae was performed by two-fold serial dilutions in Brain-Heart-Infusion Broth supplemented with 50 μg/mL Ca^2+.
(§2) Modal values from up to 6 determinations

MSSA = test: MIC susceptibility testing, MSSA; assay type: cell-based, Staphylococcus aureus
Method: as §1, §2

[1] = system: Methicillin-resistant Staph. epidermidis; test: MIC susceptibility testing, methicillin-resistant Staph. epidermidis; assay type: cell-based, S. epidermidis
Method: as §1, §2

[2] = system: Vancomycin sensitive enterococci, E. faecium; test: MIC susceptibility testing, vancomycin sensitive enterococci (E. faecium); assay type: cell-based
Method: as §1, §2

[3] = system: Vancomycin resistant enterococci, E. faecium; test: MIC susceptibility testing, vancomycin resistant enterococci (E. faecium); assay type: cell-based
Method: as §1, §2

Streptococcus pneumoniae = test: MIC susceptibility testing, S. pneumoniae (Brain-Heart-Infusion Broth); assay type: cell-based; conditions: S. pneumoniae R33
Method: as §1, §2

Aqueous solubility = assay type: physicochemical
From the text: Solubility as employed herein is used generically to refer to a distribution of a compound of formula (I) in a solvent (for example water, saline or an aqueous isotonic solution such as glucose) such that the formulation/composition resulting therefrom is substantially free of visible aggregates and for example is substantially transparent when viewed by the naked eye. Such a formulation would therefore include a whole range of formats which are suitable for infusion and/or injection such as solutions, suspensions, colloids and the like. […]

[4] = system: Staphylococcus aureus methicillin resistant ATCC 33591; test: Mouse bacteraemia model, SC dosing; assay type: in vivo
Method: Groups of 6 male CD-1 (Crl.) derived mice weighing 24±2 g were used. Mice were inoculated intraperitoneally (IP) with an LD90-100 of Staphylococcus aureus methicillin resistant ATCC 33591 (1.1×10^7 CFU/mouse) in 0.5 mL of BHI broth containing 5% mucin. Example 1 and vancomycin were dissolved in 15% HPbetaCD/4.4% glucose/0.5 mM KH2PO4, pH 5.0 and doses of 1, 3, 5, 10 and 20 mg/Kg were administered subcutaneously (SC) to test animals at 0, 2 and 24 hour(s) after bacteria challenge. The dosing volume was 5 mL/Kg. Mortality was recorded once daily for 7 days (FIG. 1). The ED50 for each compound was determined by nonlinear regression.

[5] = system: Methicillin Resistant Staphylococcus aureus (MRSA, ATCC 33591); test: Neutropaenic mouse thigh infection model; assay type: in vivo
Method: In vivo efficacy of compounds of the present invention in the treatment of bacterial tissue infections was evaluated using a neutropaenic mouse thigh model.
Groups of 6 male ICR mice weighing 24±2 g were used. Test animals were immunosuppressed by 2 intraperitoneal injections of cyclophosphamide, the first at 150 mg/Kg 4 days before infection (day-4) and the second at 100 mg/Kg 1 day before infection (day-1). On day 0, individual animals were inoculated intramuscularly (IM) into the right thigh of test animals with 1.15×10^8 CFU/mouse of Methicillin Resistant Staphylococcus aureus (MRSA, ATCC 33591) suspended in 100 μL of sterile PBS, pH 7.4. Vehicle and test substances were administered intravenously (IV) at a dose volume of 6 mL/Kg, 2 and 14 hours after thigh infection. Example 1 and vancomycin were dissolved in 15% hydroxypropyl-β-cyclodextrin/4.4% glucose/1.5 mM potassium phosphate buffer, pH 7.0 and administered at doses of 5, 10, 20, 30 and 40 mg/Kg. At 26 hours after inoculation, muscle of the right thigh of each test mouse was harvested. From an additional group with no treatment, muscle of the right thigh was harvested at 2 hours after inoculation for the basal CFU determination. The removed muscle tissues were then homogenized in 3-4 mL of PBS, pH 7.4 with a ceramic mortar. Homogenates of 0.1 mL were used for serial 10-fold dilutions and plated on Mueller Hinton broth in 1.5% Bacto agar for CFU determination. […] Results (mean cfu/g) are graphically represented in FIG. 2.

CC[C@H](C)[C@@H]1NC(=O)[C@@H]2NC(=O)[C@H](CC(C)C)NC(=O)[C@H](NC(=O)[C@@H]3CSC[C@@H](N)C(=O)N[C@@H](CO)C(=O)NCC(=O)N[C@@H](Cc4c[nH]c5ccccc45)C(=O)N[C@@H](C(C)C)C(=O)N3)[C@H](C)SC[C@H](NC(=O)[C@H](CCC(=O)O)NC1=O)C(=O)NCC(=O)N[C@H]1C(=O)N[C@@H](CC(C)C)C(=O)N[C@@H](C(C)C)C(=O)N[C@@H](CS[C@H]2C)C(=O)N[C@@H](C)C(=O)N[C@H](C(=O)NCc2cc(Cl)cc(Cl)c2)CS[C@H]1C [Example 1, Deoxyactagardine B (3,5-dichlorobenzylamine) monocarboxamide N-methyl glucamine salt]
MIC (MRSA; S. aureus 12232): 4 µg/mL | MIC (MRSA; S. aureus R31): 4 µg/mL | MIC (MRSA; S. aureus R33): 4 µg/mL | MIC (MRSA; S. aureus R34): 4 µg/mL | MIC (MRSA; S. aureus R36): 4 µg/mL | MIC (MRSA; S. aureus R37): 4 µg/mL | MIC (MRSA; S. aureus R39): 4 to 8 µg/mL | MIC (MRSA; S. aureus R40): 4 to 8 µg/mL | MIC (MRSA; S. aureus W71): 8 µg/mL | MIC (MRSA; S. aureus W74): 4 µg/mL | MIC (MRSA; S. aureus W82): 4 to 8 µg/mL | MIC (MRSA; S. aureus W96): 4 to 8 µg/mL | MIC (MRSA; S. aureus W97): 4 µg/mL | MIC (MRSA; S. aureus W98): 4 to 8 µg/mL | MIC (MRSA; S. aureus W99): 4 to 8 µg/mL | MIC (MSSA; S. aureus 8325-4): 4 µg/mL | MIC (MSSA; S. aureus G12): 4 µg/mL | MIC (MSSA; S. aureus G15): 4 µg/mL | MIC (MSSA; S. aureus G20): 4 µg/mL | MIC (MSSA; S. aureus G22): 4 µg/mL | MIC (MSSA; S. aureus G23): 4 µg/mL | MIC (MSSA; S. aureus G26): 4 µg/mL | MIC (MSSA; S. aureus G28): 4 µg/mL | MIC (MSSA; S. aureus G29): 4 µg/mL | MIC (MSSA; S. aureus G30): 4 µg/mL | MIC (MSSA; S. aureus G31): 4 µg/mL | MIC (MSSA; S. aureus G32): 4 µg/mL | MIC (MSSA; S. aureus G33): 4 µg/mL | MIC (MSSA; S. aureus G35): 4 µg/mL | MIC (MSSA; S. aureus SH1000): 4 to 8 µg/mL | MIC ([1]; S. epidermidis 7753921): 8 to 16 µg/mL | MIC ([1]; S. epidermidis 7755298): 8 µg/mL | MIC ([1]; S. epidermidis 7765349): 4 µg/mL | MIC ([1]; S. epidermidis 7864847): <16 µg/mL | MIC ([1]; S. epidermidis 7865688): 16 µg/mL | MIC ([1]; S. epidermidis GRL05011): 16 µg/mL | MIC ([1]; S. epidermidis GRL05012): 8 µg/mL | MIC ([1]; S. epidermidis GRL05013): 8 to 16 µg/mL | MIC ([1]; S. epidermidis GRL05014): 8 to 16 µg/mL | MIC ([1]; S. epidermidis GRL05015): 8 to 16 µg/mL | MIC ([1]; S. epidermidis GRL05016): 4 to 8 µg/mL | MIC ([1]; S. epidermidis GRL05017): 16 µg/mL | MIC ([1]; S. epidermidis GRL05019): 16 µg/mL | MIC ([1]; S. epidermidis GRL05020): 4 µg/mL | MIC ([2]; E. faecium 19579): 4 µg/mL | MIC ([2]; E. faecium 7754422): <8 µg/mL | MIC ([2]; E. faecium 7865229): 16 µg/mL | MIC ([3]; E. faecium 7634337): 16 µg/mL | MIC ([3]; E. faecium 7662769): <16 µg/mL | MIC ([3]; E. faecium 7860190): 4 to 8 µg/mL | MIC ([3]; E. faecium 7865532): 16 µg/mL | MIC ([3]; E. faecium 9704998): 8 µg/mL | MIC ([3]; E. faecium 9709024): <16 µg/mL | MIC ([3]; E. faecium 9710577): 16 µg/mL | MIC (Streptococcus pneumoniae): <16 µg/mL | pH of saturated solution (Aqueous solubility; aqueous saturated solution, listed as N-methyl-D-glucamine salt): 8.43 | Solubility (Aqueous solubility; aqueous, * = calculations made from two determinations, listed as N-methyl-D-glucamine salt): 6.87* mg/mL | Solubility (Aqueous solubility; water, salts of compound 1, read-out: solubility): > 10000 µg/mL | survival rate ([4]; 3 mg/Kg): 100% | antimicrobial effect against S. aureus (MRSA) in mice ([4]; 3, 5, 10 and 20 mg/Kg×3, SC): significant antimicrobial effect | increase in survival rate ([4]; 3, 5, 10 and 20 mg/Kg×3, SC): at least 50% | estimated ED50 ([4]; CD-1 mice, SC at 0, 2 and 24 h after challenge, mortality over 7 days, nonlinear regression): 1.07 mg/kg | antimicrobial effect ([5]; IV at 5, 10, 20, 30 and 40 mg/Kg×2, 2 and 14 h after thigh infection, harvest at 26 h): significant antimicrobial effect | reduction in CFU/g ([5]; at 10 mg/kg and above, IV ×2, thigh muscle at 26 h): > 1000 fold
